According to publication doi:10.1101/2023.04.05.535794v1 (biorxiv, 2023):

Assays:
Experiment in all cases: fluorogenic peptide-amc hydrolysis, dose-response over […] h
Assay type in all cases: biochemical
[1] = biological target: T1, Tv20S β1 (T. vaginalis 20S proteasome, β1 site) (Trichomonas vaginalis, UniProt A2E7Z2)
T1 sequence (A2E7Z2 13-216): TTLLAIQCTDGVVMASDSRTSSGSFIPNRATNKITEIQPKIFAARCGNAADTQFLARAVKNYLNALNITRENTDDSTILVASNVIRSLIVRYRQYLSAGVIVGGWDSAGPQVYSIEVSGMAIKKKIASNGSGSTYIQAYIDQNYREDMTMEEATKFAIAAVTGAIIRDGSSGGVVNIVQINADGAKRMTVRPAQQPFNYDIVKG

[2] = biological target: T2, Tv20S β5 (T. vaginalis 20S proteasome, β5 site) (Trichomonas vaginalis, UniProt A2DD57)
T2 sequence (A2DD57 54-256): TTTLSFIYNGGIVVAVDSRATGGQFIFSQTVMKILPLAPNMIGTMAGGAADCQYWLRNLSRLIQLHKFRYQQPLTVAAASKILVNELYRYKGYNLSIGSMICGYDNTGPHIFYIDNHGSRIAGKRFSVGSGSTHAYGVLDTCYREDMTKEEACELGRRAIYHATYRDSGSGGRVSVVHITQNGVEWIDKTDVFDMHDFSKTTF

[3] = biological target: T3, Tv20S β2 (T. vaginalis 20S proteasome, β2 site) (Trichomonas vaginalis, UniProt A2F2T6)
T3 sequence (A2F2T6 32-275): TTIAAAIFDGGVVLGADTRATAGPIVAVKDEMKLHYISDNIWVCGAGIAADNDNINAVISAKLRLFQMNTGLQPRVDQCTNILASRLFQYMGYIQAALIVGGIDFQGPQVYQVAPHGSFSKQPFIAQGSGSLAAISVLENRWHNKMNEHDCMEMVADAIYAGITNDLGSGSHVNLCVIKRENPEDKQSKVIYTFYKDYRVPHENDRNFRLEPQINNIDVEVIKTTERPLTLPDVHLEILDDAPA

SMILES	IC50 [1] [nM]	IC50 [2] [nM]	IC50 [3] [nM]
CC(C)C[C@H](NC(=O)CNC(=O)c1cc(Cl)ccc1Cl)B(O)O [ixazomib]	270 ± 97.1	34.1 ± 5.4	
CC(C)C[C@H](NC(=O)[C@H](CCc1ccccc1)NC(=O)CN1CCOCC1)C(=O)N[C@@H](Cc1ccccc1)C(=O)N[C@@H](CC(C)C)C(=O)[C@@]1(C)CO1 [carfilzomib]		78.4 ± 17.3	372 ± 92.1
